Measurements: patent publication US12612386B2, “Heteroaryl-triazole compounds as pesticides” (Bayer Aktiengesellschaft, priority 2020, dated 2026)

Legend:
Type in all cases: in vivo
[1] = test system: green peach aphid (Myzus persicae); experiment: Myzus persicae spray test (MYZUPE); conditions: 120 h; for mortality at 100 g/ha: after 5 days
Description: Myzus persicae—Spray Test
• Solvent: 78.0 parts by weight acetone • 1.5 parts by weight dimethylformamide • Emulsifier: alkylarylpoly glycol ether
(§1) To produce a suitable preparation of active compound, 1 part by weight of active compound is mixed with the stated amount of solvents and is diluted with water, containing an emulsifier concentration of 1000 ppm, to the desired concentration. Further test concentrations are prepared by dilution with emulsifier containing water.
Chinese cabbage (Brassica pekinensis) leaf disks infected with all instars of the green peach aphid (Myzus persicae), are sprayed with a preparation of the active ingredient of the desired concentration.
After 5 days mortality in % is determined. 100% means all aphids have been killed and 0% means none of the aphids have been killed.
Myzus persicae—Spray Test (MYZUPE)
(§2) • Solvent: 78.0 parts by weight acetone • 1.5 parts by weight dimethylformamide • Emulsifier: alkylarylpolyglycol ether
After the specified period of time, mortality in % is determined. 100% means all aphids have been killed and 0% means none of the aphids have been killed.

[2] = test system: brown planthopper (Nilaparvata lugens); experiment: Nilaparvata lugens spray test; conditions: 96 h
Description: Nilaparvata lugens—Spray Test
(§3) • Solvent: 78.0 parts by weight of acetone • 1.5 parts by weight of dimethylformamide • Emulsifier: alkylarylpolyglycol ether
as §1
Rice plants (Oryza sativa) are sprayed with a preparation of the active ingredient of the desired concentration and the plants are infested with the brown planthopper (Nilaparvata lugens).
After 4 days mortality in % is determined. 100% means all planthoppers have been killed and 0% means none of the planthoppers have been killed.

[3] = test system: fall armyworm larvae (Spodoptera frugiperda); experiment: whole plant or invertebrate; conditions: 168 h
Description: Spodoptera frugiperda—Spray Test
as §2, §1
Maize (Zea mays) leaf sections are sprayed with a preparation of the active ingredient of the desired concentration. Once dry, the leaf sections are infested with fall armyworm larvae (Spodoptera frugiperda).
After 7 days mortality in % is determined. 100% means all caterpillars have been killed and 0% means none of the caterpillars have been killed.
Spodoptera frugiperda—Spray Test (SPODFR)
After the specified period of time, mortality in % is determined. 100% means all caterpillars have been killed and 0% means none of the caterpillars have been killed.

[4] = test system: larvae of the southern green stink bug (Nezara viridula); experiment: whole plant or invertebrate; conditions: 96 h
Description: Nezara viridula—Spray Test
as §3
(§4) To produce a suitable preparation of active compound, 1 part by weight of active compound is mixed with the stated amount of solvent, and the concentrate is diluted with water, containing an emulsifier concentration of 1000 ppm, to the desired concentration. Further test concentrations are prepared by dilution with emulsifier containing water.
Barley plants (Hordeum vulgare) are sprayed with a test solution containing the desired concentration of the active ingredient and are infested with larvae of the southern green stink bug (Nezara viridula).
After 4 days mortality in % is determined. 100% means all the stink bugs have been killed; 0% means none of the stink bugs have been killed.

[5] = test system: larvae of the banded cucumber beetle (Diabrotica balteata); experiment: Diabrotica balteata spray test; conditions: 168 h, 100 g/ha (=32 μg/well), after 7 days, read-out: efficacy (seedling growth)
Description: Diabrotica balteata—Spray Test
as §3, §4
Soaked wheat seeds (Triticum aestivum) are placed in a multiple well plate filled with agar and some water and are incubated for 1 day to germinate (5 seeds per well). The germinated wheat seeds are sprayed with a test solution containing the desired concentration of the active ingredient. Afterwards each unit is infected with 10-20 larvae of the banded cucumber beetle (Diabrotica balteata).
After 7 days efficacy in % is determined. 100% means all the seedlings have grown up like in the untreated, uninfected control; 0% means none of the seedlings have grown.

SMILES | mortality at 100 g/ha [1] | mortality at 500 g/ha [2] | mortality at 100 g/ha [3] | mortality at 500 g/ha [4] | pest or weed control at 32 µg/disc, 100 g/ha [5] | mortality at 100 g/ha [4] | Emax at 4 g/ha ([1]; MYZUPE, 4 g ai/ha, 5 dat (Table 4), read-out: % Efficacy) | Emax at 20 g/ha ([1]; MYZUPE, 20 g ai/ha, 5 dat (Table 4), read-out: % Efficacy) | Emax at 100 g/ha ([1]; MYZUPE, 100 g ai/ha, 5 dat (Table 4), read-out: % Efficacy) | Emax at 20 g/ha ([3]; SPODFR, 20 g ai/ha, 7 dat (Table 4), read-out: % Efficacy) | Emax at 100 g/ha ([3]; SPODFR, 100 g ai/ha, 7 dat (Table 4), read-out: % Efficacy)
C[C@H](NC(=O)c1cc(C(F)(F)F)cc(C(F)(F)F)c1)c1ncnn1-c1cc(C(=O)N(C)C)ncn1 [I-129] | 100% | 100% | 100% | 100% | 100% | – | – | – | – | – | –
Cc1nc([C@H](C)NC(=O)c2cc(C(F)(F)F)cc(C(F)(F)F)c2)n(-c2cc(C(=O)N(C)C)ncn2)n1 [I-130] | – | 100% | 100% | 100% | 100% | – | – | – | – | – | –
Cc1nc([C@H](C)NC(=O)c2cc(C(F)(F)F)cc(S(C)(=O)=O)c2)n(-c2cc(C#N)ncn2)n1 [I-23] | – | 100% | – | 100% | 100% | – | – | – | – | – | –
CNC(=O)c1cc(-n2ncnc2[C@H](C)NC(=O)c2cc(Cl)cc(S(C)(=O)=O)c2)ncn1 [I-60] | 90% | 100% | – | 100% | 100% | – | – | – | – | – | –
Cc1nc([C@H](C)NC(=O)c2cc(OC(F)(F)F)cc(S(C)(=O)=O)c2)n(-c2cc(C(N)=O)ncn2)n1 [I-32] | 90% | 90% | 100% | 100% | – | 90% | – | – | – | – | –
Cc1nc([C@H](C)NC(=O)c2cc(S(=O)(=O)C(F)(F)F)cc(S(=O)(=O)C(F)(F)F)c2)n(-c2cc(C#N)ncn2)n1 [I-29] | – | 100% | 100% | – | 100% | – | – | – | – | – | –
Cc1nc([C@H](C)NC(=O)c2cc(Cl)cc(S(C)(=O)=O)c2)n(-c2cc(C(N)=O)ncn2)n1 [I-61] | – | 90% | – | 100% | – | – | – | – | – | – | –
C[C@H](NC(=O)c1cc(I)cc(OC(F)F)c1)c1ncnn1-c1cc(C(N)=O)ncn1 [I-162] | 90% | – | 100% | 100% | 100% | – | – | – | – | – | –
C[C@H](NC(=O)c1cccc(F)c1)c1ncnn1-c1cc(C(N)=O)ncn1 [I-44] | – | 100% | – | 100% | 100% | 100% | – | – | – | – | –
C[C@H](NC(=O)c1cc(F)cc(C#N)c1)c1ncnn1-c1cc(C(N)=O)ncn1 [I-77] | 100% | 100% | – | 100% | 100% | – | – | – | – | – | –
Cc1nc([C@H](C)NC(=O)c2cc(C#N)cc(C#N)c2)n(-c2cc(C(N)=O)ncn2)n1 [I-128] | – | 100% | – | 100% | 100% | 100% | – | – | – | – | –
C[C@H](NC(=O)c1cc(C#N)cc(C#N)c1)c1ncnn1-c1cc(C(N)=O)ncn1 [I-126] | – | 100% | – | 100% | – | 100% | – | – | – | – | –
C[C@H](NC(=O)c1cc(Cl)cc(S(C)(=O)=O)c1)c1ncnn1-c1cc(C(N)=O)ncn1 [I-59] | 90% | 100% | – | 100% | 100% | – | – | – | – | – | –
CNC(=O)c1cc(-n2ncnc2[C@H](C)NC(=O)c2cc(Br)cc(OC(F)(F)C(F)F)c2)ncn1 [I-122] | – | 100% | 100% | 100% | 100% | – | – | – | – | – | –
CNC(=O)c1cc(-n2nc(C)nc2[C@H](C)NC(=O)c2cc(Br)cc(OC(F)F)c2)ncn1 [I-88] | 100% | – | 100% | 100% | 100% | – | – | – | – | – | –
CNC(=O)c1cc(-n2ncnc2[C@H](C)NC(=O)c2cc(C(F)F)cc(C(F)F)c2)ncn1 [I-134] | 90% | 100% | 100% | – | 100% | – | – | – | – | – | –
C[C@H](NC(=O)c1cc(Cl)cc(S(=O)(=O)C(F)(F)F)c1)c1ncnn1-c1cc(C(N)=O)ncn1 [I-84] | 90% | – | 100% | 100% | 100% | – | 90% | 100% | 90% | 100% | 100%
C[C@H](NC(=O)c1cc(OC(F)(F)F)cc(S(=O)(=O)C(F)F)c1)c1ncnn1-c1cc(C(N)=O)ncn1 [I-45] | 90% | – | 100% | 100% | 100% | – | – | – | – | – | –
C[C@H](NC(=O)c1cc(C(F)F)cc(C(F)F)c1)c1ncnn1-c1cc(C(=O)N(C)C)ncn1 [I-139] | 100% | 100% | – | 100% | 100% | – | – | – | – | – | –
C[C@H](NC(=O)c1cc(Br)cc(C#N)c1)c1ncnn1-c1cc(C(N)=O)ncn1 [I-124] | 90% | – | 100% | 100% | 100% | 100% | – | – | – | – | –
CNC(=O)c1cc(-n2ncnc2[C@H](C)NC(=O)c2cccc(OC(F)(F)F)c2)ncn1 [I-110] | 90% | – | 100% | 100% | 100% | – | – | – | – | – | –
Cc1nc([C@H](C)NC(=O)c2cc(Br)cc(Br)c2)n(-c2cc(C(N)=O)ncn2)n1 [I-71] | 90% | – | 100% | 90% | 100% | – | – | – | – | – | –
CC(C)N(C)C(=O)c1nccc(-n2ncnc2[C@H](C)NC(=O)c2cc(OC(F)(F)F)cc(OC(F)(F)F)c2)n1 [I-115] | 90% | 90% | 100% | – | 80% | – | – | – | – | – | –
C[C@H](NC(=O)c1cc(OC(F)(F)F)cc(S(C)(=O)=O)c1)c1nc(C2CC2)nn1-c1cc(C(=O)N(C)C)ncn1 [I-154] | 90% | 100% | 100% | 100% | – | – | – | – | – | – | –
C[C@H](NC(=O)c1cc(C(F)F)cc(C(F)F)c1)c1ncnn1-c1cc(C(N)=O)ncn1 [I-133] | 100% | 100% | 100% | – | 100% | – | – | – | – | – | –
